From patent EP1893597B1, “AMPA RECEPTOR POTENTIATORS” (ELI LILLY AND COMPANY, priority 2005, dated 2006)

Molecular target: T1, human iGluR4 (Homo sapiens, UniProt P48058)
T1 construct: expressed in transfected cells; host or cells: HEK293
Assay: Whole-cell voltage clamp potentiation of currents evoked by 1 mM glutamate in HEK293 cells stably expressing human iGluR4
Assay type: cell-based
Settings: HEK293 cells stably expressing human iGluR4, voltage-clamped at -60mV, concentration increased in half log units, fit to the Hill equation
Source text: HEK293 cells stably expressing human iGluR4 (obtained as described in European Patent Application Publication No. EP-A1-0583917) are used in the electrophysiological characterization of AMPA receptor potentiators. The extracellular recording solution contains (in mM): 140 NaCl, 5 KCl, 10 HEPES, 1 MgCl2, 2 CaCl2, 10 glucose, pH = 7.4 with NaOH, 295 mOsm kg-1. The intracellular recording solution contains (in mM): 140 CsCl, 1 MgCl2, 10 HEPES, (N-[2-hydroxyethyl]piperazine-N1-[2-ethanesulfonic acid]) 10 EGTA (ethylene-bis(oxyethylene-nitrilo)tetraacetic acid), pH = 7.2 with CsOH, 295 mOsm kg-1. With these solutions, recording pipettes have a resistance of 2-3 MΩ. […] Responses to 1 mM glutamate are then determined in the presence of test compound. […]
In order to determine the potency of test compounds, the concentration of the test compound, both in the bathing solution and co-applied with glutamate, is increased in half log units until the maximum effect was seen. […] Reversibility of test compound activity is determined by assessing control glutamate 1mM responses. Once the control responses to the glutamate challenge are re-established, the potentiation of these responses by 100 µM cyclothiazide is determined by its inclusion in both the bathing solution and the glutamate-containing solution. In this manner, the efficacy of the test compound relative to that of cyclothiazide can be determined.

T1 sequence (P48058 21-902): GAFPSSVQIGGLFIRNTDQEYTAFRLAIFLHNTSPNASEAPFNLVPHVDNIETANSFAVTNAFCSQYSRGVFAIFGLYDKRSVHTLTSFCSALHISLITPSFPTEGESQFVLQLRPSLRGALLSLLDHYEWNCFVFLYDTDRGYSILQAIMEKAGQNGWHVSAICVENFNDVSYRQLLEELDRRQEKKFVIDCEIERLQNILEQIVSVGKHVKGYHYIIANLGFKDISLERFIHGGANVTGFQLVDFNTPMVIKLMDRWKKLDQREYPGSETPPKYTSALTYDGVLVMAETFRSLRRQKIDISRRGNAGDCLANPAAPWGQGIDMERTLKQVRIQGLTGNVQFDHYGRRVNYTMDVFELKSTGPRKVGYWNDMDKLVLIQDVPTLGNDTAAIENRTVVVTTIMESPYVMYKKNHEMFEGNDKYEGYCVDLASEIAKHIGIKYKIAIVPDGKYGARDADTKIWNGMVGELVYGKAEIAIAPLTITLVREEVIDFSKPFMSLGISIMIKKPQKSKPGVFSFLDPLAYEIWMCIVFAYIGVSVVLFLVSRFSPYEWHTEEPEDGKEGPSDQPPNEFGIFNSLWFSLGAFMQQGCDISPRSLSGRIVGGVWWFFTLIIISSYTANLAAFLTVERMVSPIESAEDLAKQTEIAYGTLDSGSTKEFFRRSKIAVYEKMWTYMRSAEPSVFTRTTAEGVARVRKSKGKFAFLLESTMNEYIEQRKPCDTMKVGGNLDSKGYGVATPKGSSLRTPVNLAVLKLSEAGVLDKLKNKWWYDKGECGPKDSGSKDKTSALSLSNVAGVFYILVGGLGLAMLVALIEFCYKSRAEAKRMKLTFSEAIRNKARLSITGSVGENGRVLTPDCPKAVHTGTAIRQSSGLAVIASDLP

- EC50: 445 nM
Compound: CC(C)S(=O)(=O)Nc1ccccc1-c1ccc(-c2ccc(-c3nnn[nH]3)cc2)cc1 [Example 77, Propane-2-sulfonic acid [4"-(1H-tetrazol-5-yl)-[1,1';4',1"]terphenyl-2-yl]-amide]
